The values below come from PMC5970136, “Molecular basis of dimer formation during the biosynthesis of benzofluorene-containing atypical angucyclines” (Nature Communications, 2018).

Test in all cases: microbe, parasite or virus in culture
Holding throughout (parameters): broth microdilution in Mueller-Hinton broth, minimum inhibitory concentration

The test system of assay [1] is T1, Staphylococcus aureus MRSA ATCC 43300.
T1 construct: ATCC 43300 (methicillin resistant)
The note with it: 18 h. The method, then:
(§1) Antimicrobial activities were measured against seven indicator strains (Staphylococcus aureus ATCC 29213, Escherichia coli ATCC 25922, Enterococcus faecalis ATCC 29212, Acinetobacter baumannii ATCC 19606, Bacillus subtilis SCSIO BS01, Micrococcus Luteus SCSIO ML01, and methicillin resistant S. aureus ATCC 43300) by the broth microdilution method[8],[9]. Bacterial strains were grown to achieve an optical absorbance of 0.04−0.06 at 600 nm on a rotary shaker at 37 °C. […] The minimum inhibitory concentration (MIC) values were measured after 18 h cultivation. Each compound was tested in triplicates with TMP as a positive control. […] A proof of concept experiment was carried out in which FST D (7) was incubated with the antibacterial agent trimethoprim (TMP, 34). Two products 35 and 36 isolated from this reaction (Fig. 6a, Supplementary Fig. 128) were structurally characterized as hybrids of TMP and FST (Fig. 6a; Supplementary Figs. 129−142). Similar results were obtained upon incubation of TMP (34) with compound 27, but not with compound 28 (Supplementary Fig. 143). These findings again support the hypothesis that spontaneous formation of a p-QM precursor is a prerequisite for the production of FST hybrids.

Assay [2] has as its system T2, S. aureus ATCC 29213.
T2 construct: ATCC 29213
The note with it: Staphylococcus aureus, ATCC29213, 18 h. The method, then:
as §1

In assay [3] the test system is T3, E. coli ATCC 25922.
T3 construct: ATCC 25922
The note with it: Escherichia coli, ATCC25922, 18 h. The method, then: as §1

The test system of assay [4] is T4, E. faecalis ATCC 29212.
T4 construct: ATCC 29212
The note with it: Enterococcus faecalis, ATCC29212, 18 h. The method, then: as §1

Assay [5] concerns T5, B. subtilis SCSIO BS01.
T5 construct: SCSIO BS01
The note with it: Bacillus subtilis, SCSIOBS01, 18 h. The method, then:
as §1

The subject of assay [6] is T6, M. Luteus SCSIO ML01.
T6 construct: SCSIO ML01
The note with it: Micrococcus luteus, 18 h. The method, then:
as §1

In assay [7] the test system is T7, A. baumannii ATCC 19606.
T7 construct: ATCC 19606
The note with it: Acinetobacter baumannii, ATCC19606, 18 h. The method, then: as §1

≈ marks a conversion by molar mass, not a printed value.

`C[C@]12O[C@H]1[C@H](Nc1ccc(C(=O)O)cc1)c1c(cc(O)c3c1C(=O)c1cccc(O)c1-3)C2=O` [compound 14, FST S]: the MIC in assay [1], in assay [2], in assay [3], in assay [4], in assay [5] and in assay [6] was over 64 µg/mL each time. The same compound showed an MIC in assay [7] of over 64 µg/mL.

In the case of `COC1c2c(cc(O)c3c2C(=O)c2c(C4c5c(cc(O)c6c5C(=O)c5cccc(O)c5-6)C(=O)C5(C)OC45)ccc(O)c2-3)C(=O)C2(C)OC12` (centres unmarked) [compound 26, difluostatin H], the MIC is over 64 µg/mL in assay [1]; over 64 µg/mL in assay [2]; over 64 µg/mL in assay [3]; over 64 µg/mL in assay [4]; 64 µg/mL (≈ 99.3 µM) in assay [5]; over 64 µg/mL in assay [6]. Also, the MIC in assay [7] is over 64 µg/mL.

As to `CC12OC1C(O)c1c(cc(O)c3c1C(=O)c1c(C4c5c(cc(O)c6c5C(=O)c5cccc(O)c5-6)C(=O)C5(C)OC45)ccc(O)c1-3)C2=O` (centres unmarked) [compound 24, difluostatin F], the MIC in assay [1], in assay [2], in assay [3], in assay [4], in assay [5] and in assay [6] was over 64 µg/mL each time. In addition, in assay [7], the MIC was over 64 µg/mL.

Regarding `COc1cc(Cc2cnc(N)nc2N)cc(OC)c1OC` [Trimethoprim], the MIC in assay [1] came to 0.5 µg/mL (≈ 1.72 µM); in assay [2], 0.5 µg/mL (≈ 1.72 µM); in assay [3] it was 0.25 µg/mL (≈ 0.861 µM); in assay [4], 2 µg/mL (≈ 6.89 µM); in assay [5], 0.5 µg/mL (≈ 1.72 µM); in assay [6], 1 µg/mL (≈ 3.44 µM). Moreover, in assay [7], the MIC was 64 µg/mL (≈ 220 µM).

As to `CC(=O)NN1c2c(c3c(c4c2C(=O)C(C)(O)C=C4)C(=O)c2cccc(O)c2-3)OC2C1c1c(cc(O)c3c1C(=O)c1cccc(O)c1-3)C(=O)C2(C)O` (centres unmarked) [compound 15, difluostatin B], the MIC in assay [1], in assay [2], in assay [3], in assay [4], in assay [5] and in assay [6] was over 64 µg/mL each time. In addition, the MIC in assay [7] is over 64 µg/mL.

With `Cc1cc(O)cc(O)c1C(=O)c1c(O)cccc1Cc1cc2c(c(=O)o1)C1c3c(cc(O)c4c3C(=O)c3cccc(O)c3-4)C(=O)C(C)(O2)C1O` (centres unmarked) [compound 16, difluostatin C], the MIC in assay [1], in assay [2], in assay [3], in assay [4], in assay [5] and in assay [6] was over 64 µg/mL in each case. Moreover, in assay [7], the MIC is over 64 µg/mL.

For `Cc1ccc2c3c(c(O)cc2c1O)-c1c(O)cccc1C3=O` [compound 12, isoprefluostatin], the MIC was 64 µg/mL (≈ 219 µM) in assay [1]; 64 µg/mL (≈ 219 µM) in assay [2]; over 64 µg/mL in assay [3]; over 64 µg/mL in assay [4]; 32 µg/mL (≈ 109 µM) in assay [5]; 64 µg/mL (≈ 219 µM) in assay [6]. Further, the MIC in assay [7] was over 64 µg/mL.

Take `Cc1ccc2c(c1)OC1(C)C(=O)c3cc(O)c4c(c3C(N2)C1O)C(=O)c1cccc(O)c1-4` (centres unmarked) [compound 33, 33]: the MIC in assay [1], in assay [2], in assay [3], in assay [4], in assay [5] and in assay [6] was over 64 µg/mL in each case. The same compound registered an MIC in assay [7] of over 64 µg/mL.
